According to patent US7238706B2, “4-oxo-1-(3-substituted phenyl-1,4-dihydro-1,8-naphthyridine-3-carboxamide phosphodiesterase-4 inhibitors” (Merck Frosst Canada, Ltd., priority 2002, dated 2007):

System: TNF-α
Assay: LPS-induced TNF-α assay in human whole blood
Type: cell-based
Conditions: LPS 1 μg/mL, 24 hours at 37° C., TNF-α by ELISA in plasma
Experimental: Whole blood provides a protein and cell-rich milieu appropriate for the study of biochemical efficacy of anti-inflammatory compounds such as PDE4-selective inhibitors. […] Upon stimulation with LPS, activated monocytes express and secrete TNF-α up to 8 hours and plasma levels remain stable for 24 hours. Published studies have shown that inhibition of TNF-α by increasing intracellular cAMP via PDE4 inhibition and/or enhanced adenylyl cyclase activity Occurs at the transcriptional level. […] As there is little LTB4 produced during a 24 hour LPS stimulation of whole blood, an additional LPS stimulation followed by fMLP challenge of human whole blood is necessary for LTB4 synthesis by activated neutrophils. Thus, by using the same blood sample, it is possible to evaluate the potency of a compound on two surrogate markers of PDE4 activity in the whole blood by the following procedure.
Fresh blood was collected in heparinized tubes by venipuncture from healthy human volunteers (male and female). These subjects had no apparent inflammatory conditions and had not taken any NSAIDs for at least 4 days prior to blood collection. 500 μL aliquots of blood were pre-incubated with either 2 μL of vehicle (DMSO) or 2 μL of test compound at varying concentrations for 15 minutes at 37° C. This was followed by the addition of either 10 μL vehicle (PBS) as blanks or 10 μL LPS (1 μg/mL final concentration, #L-2630 (Sigma Chemical Co., St. Louis, Mo.) from E. coli, serotype 0111:B4; diluted in 0.1% w/v BSA (in PBS)). After 24 hours of incubation at 37° C., another 10 μL of PBS (blank) or 10 μL of LPS (1 μg/mL final concentration) was added to blood and incubated for 30 minutes at 37° C. The blood was then challenged with either 10 μL of PBS (blank) or 10 μL of fMLP (1 μM final concentration, #F-3506 (Sigma); diluted in 1% w/v BSA (in PBS)) for 15 minutes at 37° C. The blood samples were centrifuged at 1500×g for 10 minutes at 4° C. to obtain plasma. A 50 μL aliquot of plasma was mixed with 200 μL methanol for protein precipitation and centrifuged as above. The supernatant was assayed for LTB4 using an enzyme immunoassay kit (#520111 from Cayman Chemical Co., Ann Arbor, Mich.) according to the manufacturer's procedure. TNF-α was assayed in diluted plasma (in PBS) using an ELISA kit (Cistron Biotechnology, Pine Brook, N.J.) according to manufacturer's procedure.

IC50	SMILES
160 nM	O=C(NCC1CC1)c1cn(-c2cccc(-c3ccc(C4CC4C(=O)O)cc3)c2)c2ncccc2c1=O (stereo not shown) [Example 26, 2-{3′-[3-{[(Cyclopropylmethyl)amino]carbonyl}-4-oxo-1,8-naphthyridin-1(4H)-yl]-1,1′-biphenyl-4-yl}cyclopropanecarboxylic acid]
160 nM	O=C(NC1CC1)c1cn(-c2cccc(-c3ccc([C@H]4C[C@H]4C(=O)O)cc3)c2)c2ncccc2c1=O (single isomer, unassigned; isomer 2) [8-(−)-isomer, 2-(cis)-{3′-[3-[(Cyclopropylamino)carbonyl]-4-oxo-1,8-naphthyridin-1(4H)-yl]-1,1′-biphenyl-4-yl}cyclopropanecarboxylic acid]
1800 nM	O=C(NC1CC1)c1cn(-c2cccc(-c3ccc(CC4(C(=O)O)CCC4)cc3)c2)c2ncccc2c1=O [Example 30, 1-({3′-[3-[(cyclopropylamino)carbonyl]-4-oxo-1,8-naphthyridin-1(4H)-yl]biphenyl-4-yl}methyl)cyclobutanecarboxylic acid]
75 nM	CC(C)(CC(=O)O)c1ccc(-c2cccc(-n3cc(C(=O)NC4CC4)c(=O)c4cccnc43)c2)cc1 [Example 5, 3-{3′-[3-[(Cyclopropylamino)carbonyl]-4-oxo-1,8-naphthyridin-1(4H)-yl]-1,1′-biphenyl-4-yl}-3-methylbutanoic acid]
100 nM	O=C(NCC(F)(F)F)c1cn(-c2cccc(-c3ccc(C4CC4C(=O)O)c(F)c3)c2)c2ncccc2c1=O (single isomer, unassigned; (+)) [Example 29, (+)-(trans)-2-{3-fluoro-3′-[4-oxo-3-{[(2,2,2-trifluoroethyl)amino]carbonyl}-1,8-naphthyridin-1(4H)-yl]biphenyl-4-yl}cyclopropanecarboxylic acid]
160 nM	O=C(NCC(F)(F)F)c1cn(-c2cccc(-c3ccc([C@@H]4C[C@H]4C(=O)O)cc3)c2)c2ncccc2c1=O (single isomer, unassigned; (+)) [24-(+)-isomer, (+)-(trans)-2-{3′-[4-oxo-3-{[(2,2,2-trifluoroethyl)amino]carbonyl}-1,8-naphthyridin-1(4H)-yl]biphenyl-4-yl}cyclopropanecarboxylic acid]
300 nM	O=C(NC1CC1)c1cn(-c2cccc(-c3ccc([C@@H]4C[C@H]4C(=O)O)cc3)c2)c2ncccc2c1=O (relative stereo) [Example 1, 2-(trans)-{3′-[3-[(Cyclopropylamino)carbonyl]-4-oxo-1,8-naphthyridin-1(4H)-yl]-1,1′-biphenyl-4-yl}cyclopropanecarboxylic acid]
500 nM	O=C(NC1CC1)c1cn(-c2cccc(-c3ccc(C4CC4C(=O)O)c(F)c3)c2)c2ncccc2c1=O (single isomer, unassigned; (-)) [12-(−)-isomer, (−)-(trans)-2-{3′-[3-[(cyclopropylamino)carbonyl]-4-oxo-1,8-naphthyridin-1(4H)-yl]-3-fluoro-1,1′-biphenyl-4-yl}cyclopropanecarboxylic acid]
90 nM	O=C(NC1CC1)c1cn(-c2cccc(-c3ccc(C4CC4C(=O)O)c(Cl)c3)c2)c2ncccc2c1=O (stereo not shown) [Example 17, 2-{3-Chloro-3′-[3-[(cyclopropylamino)carbonyl]-4-oxo-1,8-naphthyridin-1(4H)-yl]1,1′-biphenyl-4-yl}cyclopropanecarboxylic acid]
100 nM	O=C(NC1CC1)c1cn(-c2cccc(-c3cccc(C4CC4C(=O)O)c3)c2)c2ncccc2c1=O (stereo not shown) [Example 2, 2-{3′-[3-[(Cyclopropylamino)carbonyl]-4-oxo-1,8-naphthyridin-1(4H)-yl]-1,1′-biphenyl-3-yl}cyclopropanecarboxylic acid]
